{"source": "patent US20080039629A1", "about": "“Benzothniazole compositions and their use as ubiquition ligation inhibitors” (RIGEL PHARMACEUTICALS, INC., priority 2003, published 2008)"}
{"target": "T1, E1 and His-E2 Ubch10 (Homo sapiens, UniProt P22314)", "T1 construct": "host or cells: E. coli (His-Ubch10); Sf9 insect cells (E1)", "T1 sequence (P22314 1-1058)": "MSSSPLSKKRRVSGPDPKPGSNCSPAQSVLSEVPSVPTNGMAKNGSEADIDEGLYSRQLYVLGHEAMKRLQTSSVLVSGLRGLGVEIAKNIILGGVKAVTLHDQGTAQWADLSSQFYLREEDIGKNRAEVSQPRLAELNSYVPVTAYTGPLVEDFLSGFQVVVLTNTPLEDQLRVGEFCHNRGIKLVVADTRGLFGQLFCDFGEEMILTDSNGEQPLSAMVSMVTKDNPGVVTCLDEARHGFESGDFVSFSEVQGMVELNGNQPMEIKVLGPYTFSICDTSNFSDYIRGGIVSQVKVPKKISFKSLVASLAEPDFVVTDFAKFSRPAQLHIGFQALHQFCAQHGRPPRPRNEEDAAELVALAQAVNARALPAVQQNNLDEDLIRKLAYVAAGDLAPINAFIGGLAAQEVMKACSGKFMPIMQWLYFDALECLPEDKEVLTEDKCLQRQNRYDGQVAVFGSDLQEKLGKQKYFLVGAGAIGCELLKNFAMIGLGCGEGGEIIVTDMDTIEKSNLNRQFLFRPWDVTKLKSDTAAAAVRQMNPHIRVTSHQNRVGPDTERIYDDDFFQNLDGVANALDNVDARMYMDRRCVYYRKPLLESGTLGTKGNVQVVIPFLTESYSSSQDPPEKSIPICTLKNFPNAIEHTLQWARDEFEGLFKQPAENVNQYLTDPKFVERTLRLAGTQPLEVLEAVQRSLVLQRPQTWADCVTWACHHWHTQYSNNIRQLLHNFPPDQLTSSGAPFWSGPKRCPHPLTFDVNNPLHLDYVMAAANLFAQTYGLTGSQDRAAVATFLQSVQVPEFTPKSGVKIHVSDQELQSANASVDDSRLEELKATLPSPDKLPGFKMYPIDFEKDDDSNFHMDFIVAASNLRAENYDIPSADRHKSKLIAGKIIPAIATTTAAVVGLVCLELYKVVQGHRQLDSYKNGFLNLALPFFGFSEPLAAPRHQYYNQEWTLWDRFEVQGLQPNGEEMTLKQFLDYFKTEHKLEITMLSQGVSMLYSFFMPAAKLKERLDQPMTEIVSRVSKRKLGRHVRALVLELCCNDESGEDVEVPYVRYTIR", "experiment": "E1 to E2 transfer assay, His-E2 Ubch10, 1.0 μM ATP (low ATP)", "format": "biochemical", "settings": "Table 5, ATP inhibition properties; inhibition measured using IC50 values", "description": "Biological assays for determining the transfer of ubiquitin from the E1 activating agent to the E2 conjugating agent are described in U.S. patent application Ser. Nos. 09/542,497 and 09/826,312 as well as in the PCT Application WO 01/75145, all of which are incorporated by reference in their entirety. The following assay example illustrates one way by which the ubiquitin ligase inhibitory activity of the compounds of the invention can be assayed. This assay example is not meant to limit in any way the use of the compounds of the invention as ubiquitin ligase inhibitors.\nThe attachment of a ubiquitin moiety to the E2 conjugating agent was assayed using Flag-ubiquitin that was purified from E. coli, E2 Ubch10 that was purified as a His-Ubch10 from E. coli, and E1 that was purified from Sf9 insect cells (Affiniti Research Products, Exeter, U.K.). The wells of a Nickel-substrate 96-well plate (Pierce Chemical) were blocked with 100 μl of 1% casein/phosphate buffered saline (PBS) for 1 hour at room temperature. The blocked Nickel-substrate plate was then washed three times with 200 μl of PBST (0.1% Tween-20 in PBS). Subsequently, Flag-ubiquitin reaction solution was added to each well so that the final concentration was 62.5 mM Tris pH 7.5, […], 0.75 mM DTT, 1.0 μM ATP (low ATP), and 100 ng Flag-ubiquitin. The final reaction solution volume was fixed to 80 μl with Millipore-filtered water. To this was added the following: a ubiquitin agent inhibitor in 10 μl of DMSO, 10 μl of E1 and His-E2 Ubch10 in 20 mM Tris buffer, pH 7.5, and 5% glycerol so that there was 10 ng/well of E1 and 20 ng/well of His-E2 Ubch10. The reaction was then allowed to proceed at room temperature for 1 hour.\nAfter 1 hour, the wells were washed three times with 200 μl of PBST and the amount of E2-ubiquitin complex was measured. For measuring the amount of the E2-ubiquitin complex, 100 μl of Mouse anti-flag diluted 1:10,000 (Sigma Aldrich Fluka Chemicals, St. Louis, Mo.) and anti-mouse HRP diluted 1:15,000 (Jackson Immunoresearch labs, West Grove, Pa.) in PBST were added to each well and allowed to incubate at room temperature for another hour. The wells were then washed three times with 200 μl of PBST and 100 μl of luminol substrate (⅕ dilution) was added. The luminescence of each well was then measured using a […] to calculate the amount of E2-ubiquitin complex. This procedure was repeated using His-E2 Ubch5C instead of His-E2 Ubch10.\nThe table below illustrates the inhibitory properties of the pharmaceutical compostions of the invention comprising the compounds listed in the table using the assays described above. Inhibition was measured using IC50 values."}
{"molecule": "COc1ccc2nc(NC(=O)c3ccc(C(F)(F)F)cc3)sc2n1", "note": "[Compound 147, N-(5-methoxythiazolo[5,4-b]pyridin-2-yl)-4-(trifluoromethyl)benzamide]", "UBC10": "−− (−− indicates marginal or no inhibition detected with this assay)"}
{"molecule": "COc1ccc2nc(NC(=O)c3ccccc3)sc2c1", "note": "[Compound 32, N-(6-methoxybenzo[d]thiazol-2-yl)benzamide]", "UBC10": "++ (++ indicates inhibition at 50 μM or or less)"}
{"molecule": "COc1ccc2nc(NC(=O)[C@H]3Cc4ccccc4N3)sc2c1", "note": "[Compound 39, (R)-N-(6-methoxybenzo[d]thiazol-2-yl)indoline-2-carboxamide]", "UBC10": "++ (++ indicates inhibition at 50 μM or or less)"}
{"molecule": "COc1ccc2nc(NC(=O)c3ccc(F)cc3)sc2c1", "note": "[Compound 57, 4-fluoro-N-(6-methoxybenzo[d]thiazol-2-yl)benzamide]", "UBC10": "++ (++ indicates inhibition at 50 μM or or less)"}
{"molecule": "O=C(Nc1nc2ccccc2s1)c1cccc(F)c1", "note": "[Compound 174, N-(benzo[d]thiazol-2-yl)-3-fluorobenzamide]", "UBC10": "−− (−− indicates marginal or no inhibition detected with this assay)"}
{"molecule": "COc1ccc2nc(NC(=O)c3ccccc3)sc2n1", "note": "[Compound 139, N-(5-methoxythiazolo[5,4-b]pyridin-2-yl)benzamide]", "UBC10": "−− (−− indicates marginal or no inhibition detected with this assay)"}
{"molecule": "CCOc1ccc2nc(NC(=O)c3ccc4c(c3)OCCO4)sc2c1", "note": "[Compound 90, N-(6-ethoxybenzo[d]thiazol-2-yl)-2,3-dihydrobenzo[b][1,4]dioxine-6-carboxamide]", "UBC10": "++ (++ indicates inhibition at 50 μM or or less)"}
{"molecule": "CC(C)(C)c1ccc(C(=O)Nc2nc3ccccc3s2)cc1", "note": "[Compound 176, N-(benzo[d]thiazol-2-yl)-4-tert-butylbenzamide]", "UBC10": "−− (−− indicates marginal or no inhibition detected with this assay)"}
{"molecule": "COc1ccc2nc(NC(=O)C3Cc4ccccc4N3)sc2c1", "note": "(centres unmarked) [Compound 38, N-(6-methoxybenzo[d]thiazol-2-yl)indoline-2-carboxamide]", "UBC10": "++ (++ indicates inhibition at 50 μM or or less)"}
{"molecule": "COc1ccc2nc(NC(=O)C3CCC3)sc2c1", "note": "[Compound 46, N-(6-methoxybenzo[d]thiazol-2-yl)cyclobutanecarboxamide]", "UBC10": "++ (++ indicates inhibition at 50 μM or or less)"}
{"molecule": "COc1ccc2nc(NC(=O)c3ccc(C)cc3)sc2c1", "note": "[Compound 21, N-(6-methoxybenzo[d]thiazol-2-yl)-4-methylbenzamide]", "UBC10": "++ (++ indicates inhibition at 50 μM or or less)"}
{"molecule": "O=C(Nc1nc2ccccc2s1)c1ccc([N+](=O)[O-])o1", "note": "[Compound 156, N-(benzo[d]thiazol-2-yl)-5-nitrofuran-2-carboxamide]", "UBC10": "−− (−− indicates marginal or no inhibition detected with this assay)"}
{"molecule": "COc1ccc2nc(NC(=O)c3ccc(NC(C)=O)cc3)sc2n1", "note": "[Compound 149, 4-acetamido-N-(5-methoxythiazolo[5,4-b]pyridin-2-yl)benzamide]", "UBC10": "++ (++ indicates inhibition at 50 μM or or less)"}
{"molecule": "CCOC(=O)c1ccc(NC(=O)Nc2nc3ccc(OC)cc3s2)cc1", "note": "[Compound 126]", "UBC10": "−− (−− indicates marginal or no inhibition detected with this assay)"}
{"molecule": "CCOc1ccc2nc(NC(=O)c3ccc(C)c(C)c3)sc2c1", "note": "[Compound 93, N-(6-ethoxybenzo[d]thiazol-2-yl)-3,4-dimethylbenzamide]", "UBC10": "−− (−− indicates marginal or no inhibition detected with this assay)"}
{"molecule": "Cc1ccc(C(=O)Nc2nc3ccc(Cl)cc3s2)cc1", "note": "[Compound 70, N-(6-chlorobenzo[d]thiazol-2-yl)-4-methylbenzamide]", "UBC10": "−− (−− indicates marginal or no inhibition detected with this assay)"}
{"molecule": "COc1ccc2nc(NC(=O)Nc3cccc(Cl)c3Cl)sc2c1", "note": "[Compound 124, 1-(2,3-dichlorophenyl)-3-(6-methoxybenzo[d]thiazol-2-yl)urea]", "UBC10": "−− (−− indicates marginal or no inhibition detected with this assay)"}
{"molecule": "O=C(Nc1nc2ccccc2s1)c1cccc(I)c1", "note": "[Compound 195, N-(benzo[d]thiazol-2-yl)-3-iodobenzamide]", "UBC10": "++ (++ indicates inhibition at 50 μM or or less)"}
{"molecule": "O=C(Nc1nc2ccccc2s1)c1ccccc1", "note": "[Compound 168, N-(benzo[d]thiazol-2-yl)benzamide]", "UBC10": "−− (−− indicates marginal or no inhibition detected with this assay)"}
{"molecule": "O=C(Nc1nc2ccccc2s1)[C@H]1CCN1", "note": "[Compound 224, (R)-N-(benzo[d]thiazol-2-yl)azetidine-2-carboxamide]", "UBC10": "−− (−− indicates marginal or no inhibition detected with this assay)"}
{"molecule": "O=C(Nc1nc2ccccc2s1)c1ccco1", "note": "[Compound 88, N-(benzo[d]thiazol-2-yl)furan-2-carboxamide]", "UBC10": "−− (−− indicates marginal or no inhibition detected with this assay)"}
{"molecule": "COc1ccc2nc(NC(=O)C(C)(C)C)sc2c1", "note": "[Compound 48, N-(6-methoxybenzo[d]thiazol-2-yl)pivalamide]", "UBC10": "++ (++ indicates inhibition at 50 μM or or less)"}
{"molecule": "COc1ccc2nc(NC(=O)c3ccco3)sc2n1", "note": "[Compound 153, N-(5-methoxythiazolo[5,4-b]pyridin-2-yl)furan-2-carboxamide]", "UBC10": "++ (++ indicates inhibition at 50 μM or or less)"}
{"molecule": "COc1ccc2nc(NC(=O)c3sccc3C)sc2c1", "note": "[Compound 103, N-(6-methoxybenzo[d]thiazol-2-yl)-3-methylthiophene-2-carboxamide]", "UBC10": "++ (++ indicates inhibition at 50 μM or or less)"}
{"molecule": "COc1ccc2nc(NC(=O)c3ccc([N+](=O)[O-])cc3Cl)sc2c1", "note": "[Compound 18, 2-chloro-N-(6-methoxybenzo[d]thiazol-2-yl)-4-nitrobenzamide]", "UBC10": "−− (−− indicates marginal or no inhibition detected with this assay)"}
{"molecule": "COc1ccc2nc(NC(=O)c3ccc(F)c(F)c3)sc2n1", "note": "[Compound 146, 3,4-difluoro-N-(5-methoxythiazolo[5,4-b]pyridin-2-yl)benzamide]", "UBC10": "++ (++ indicates inhibition at 50 μM or or less)"}
{"molecule": "Cc1ccc(C(=O)Nc2nc3c(C)cccc3s2)cc1", "note": "[Compound 71, 4-methyl-N-(4-methylbenzo[d]thiazol-2-yl)benzamide]", "UBC10": "−− (−− indicates marginal or no inhibition detected with this assay)"}
{"molecule": "COc1ccc2nc(NC(=O)c3ccc(Cl)c(Cl)c3)sc2c1", "note": "[Compound 95, 3,4-dichloro-N-(6-methoxybenzo[d]thiazol-2-yl)benzamide]", "UBC10": "++ (++ indicates inhibition at 50 μM or or less)"}
{"molecule": "COc1ccc2nc(NC(=O)c3ccc(Oc4ccccc4)cc3)sc2c1", "note": "[Compound 35, N-(6-methoxybenzo[d]thiazol-2-yl)-4-phenoxybenzamide]", "UBC10": "−− (−− indicates marginal or no inhibition detected with this assay)"}
